Reference: patent US12558334B2, “Controlled nutrient delivery to pancreatic islets using a novel mesoporous silica-based nanoparticle platform” (The Board of Trustees of the Leland Stanford Junior …, priority 2019, dated 2026)

Columns and labels:
[1] = tested on: islets; settings: reported in the literature; cited from earlier work
[2] = reported in the literature; cited from earlier work
[3] = tested on: diabetic mice transplanted with islets; test: Islet transplantation under kidney capsule of STZ diabetic mice, metabolic analysis; assay type: in vivo, C57BL/6 mice
[4] = tested on: pancreatic islets; test: Islet viability, Live/Dead assay; assay type: cell-based, C57BL/6 mice; settings: day 7; glutamine 10 mM
Procedure: (§1) All mice within this study were treated in accordance with the guidelines approved by the Institutional Animal Care and Use Committee (IACUC) at Stanford University. Animals were housed under conventional conditions having access to food and water ad libitum. Pancreatic islets were isolated from C57BL/6 mice (male, 6-8-week-old, Charles River Laboratories, USA), as previously described.^9 In brief, the common bile duct was cannulated with a 30G needle and the pancreas distended with 3 mL of cold collagenase solution (Fischer Scientific, USA). The pancreas was removed and islets isolated by digesting the pancreas at 37° C. for 10 min. The islets were purified using histopaque-density gradients. […]
After 7 days of incubation with PDG-MSNPs, the viability of islets was assessed using Live/Dead and 3-(4,5-Dimethylthiazol-2-yl)-2,5-diphenyltetrazolium bromide (MTT) assays. Islets were labeled using fluorescein diacetate (FDA; for live cells (green fluorescence), Thermo Fisher Scientific, USA) and propidium iodide (PI; for dead cells (red fluorescence), Thermo Fisher Scientific, USA) as the Live/Dead staining solution. […] A minimum of 8 islets per experimental group were analyzed using Image-J/FIJI to quantify live and dead fluorescence within islets and the percentage of live islet were presented.

[5] = tested on: pancreatic islets; test: Islet function, GSIS assay (insulin secretion); assay type: cell-based, C57BL/6 mice; settings: 7 days; glutamine 10 mM; 16.7 mM glucose
Procedure: as §1
Islets supplemented with PDG-MSNPs were cultured in a humidified incubator under normal conditions (37° C./5% CO2/20% O2). After 7 days of incubation with PDG-MSNPs, the ability of islets to secrete insulin was assessed by exposing them to low glucose (i.e. basal conditions) and high glucose (i.e. stimulated conditions) media (200 μL/well). […] The supernatants were collected at the end of incubation for both basal and stimulated condition and insulin levels were quantified using a mouse insulin ELISA kit (Mercodia Developing Diagnostics, USA). […]

Row | Compound | Cyto-protective effects on islets [1] | Decreased inflammation [1] | Enhanced islet function [1] | Enhanced islet survival [1] | Maintained function of various organs [2] | non-fasting blood glucose level (BGL) ([3]; day 30 post-transplantation) [mg/dL] | AUC0-20 min of IPGTT ([3]; fasting IPGTT) [mg·min/dL] | IPGTT peak incremental value following glucose injection ([3]; fasting IPGTT, glucose 2 g/kg i.p., peak at 30 min) [mg/dL] | body weight ([3]; week 4) [g] | islet viability (Live/Dead) [4] [%] | insulin secretion following stimulation with high glucose medium [5] [ng/mL]
1 | C[C@H](N)C(=O)O [Alanine] | No | No | Yes | Yes | No |  |  |  |  |  | 
2 | N=C(N)NCCC[C@H](N)C(=O)O [Arginine] | No | No | Yes | No | No |  |  |  |  |  | 
3 | N[C@@H](CS)C(=O)O [Cysteine] | Yes | No | No | No | No |  |  |  |  |  | 
4 | NC(=O)CC[C@H](N)C(=O)O [Glutamine, glutamine] | Yes | Yes | Yes | Yes |  | 337 ± 84 | 26935 ± 1347 | 238 ± 12 | 20.7 ± 0.9 | 77.1±2.6 | 8.1 ± 0.3
5 | N[C@@H](CCS)C(=O)O [Homocysteine] | No | No | No | No | No |  |  |  |  |  | 
6 | CC[C@H](C)[C@H](N)C(=O)O [Isoleucine] | No | No | Yes | No | No |  |  |  |  |  | 
7 | CC(C)C[C@H](N)C(=O)O [Leucine] | Yes | No | Yes | No |  |  |  |  |  |  | 
8 | NCCCC[C@H](N)C(=O)O [Lysine] | No | No | Yes | No | No |  |  |  |  |  | 
9 | CSCC[C@H](N)C(=O)O [Methionine] | No | No | No | No | No |  |  |  |  |  | 
10 | O=C(O)[C@@H]1CCCN1 [Proline] | No | No | Yes | No | No |  |  |  |  |  | 
11 | N[C@@H](Cc1c[nH]c2ccccc12)C(=O)O [Tryptophan] | No | No | Yes | Yes | No |  |  |  |  |  | 
